Values quoted from earlier work in US11712422B2, “Pharmaceutical compositions comprising activated carbon” (FERRING B.V., priority 2012, dated 2023).

SMILES: c1ccc2[nH]ccc2c1 [Indole]
- Log P: 2.14
